In patent US20260079084A1, “COMPOUND, EXTRACELLULAR VESICLE STAINING AGENT, AND FLUORESCENT STAINING METHOD FOR EXTRACELLULAR VESICLES” (National University Corporation Tokai National Higher …, priority 2022, published 2026):

Key:
[1] = tested on: milk-derived extracellular vesicles; test: Gel filtration comparison with compound of Patent Literature 1 (Example 17 / Comparative example 4); details: reaction time 3 hours at room temperature
Source text: The present applicant has disclosed GIF-2250 illustrated below in Patent Literature 1. GIF-2250 differs from the compounds of the present application in that the portion indicated by “→” is NH. First, the effect of this difference in structure provided on size separation using gel filtration was observed. Note that the synthesis procedure of GIF-2250 is disclosed in Patent Literature 1. The features disclosed in Patent Literature 1 are incorporated in the present specification by reference in its entirety.
Experiments were performed in the same procedure as in Example 10 except that GIF-2276 and GIF-2250 (Comparative example 4), which is disclosed in Patent Literature 1, were used and the reaction time was 3 hours at room temperature. FIG. 8 illustrates a graph in which respective experimental results are overlapped.

[2] = tested on: milk-derived extracellular vesicles; test: Staining of milk-derived extracellular vesicles with heat treatment, gel filtration analysis (Example 11 / Comparative example 2); details: untreated vs 80° C. for 5 minutes or 15 minutes
Procedure: Experiments were performed in the same procedure as in Example 10 except that, after the staining agent was added to the extracellular vesicle preparation liquid in Example 10, the mixture was immediately analyzed with a column (untreated), the mixture was analyzed after treated at 80° C. for 5 minutes, or the mixture was analyzed after treated at 80° C. for 15 minutes. Note that the compounds used in the experiments of Example 11 are labeled with the GIF numbers in the graphs.
Experiments were performed in the same procedure as in Comparative example 1 except that, after the staining agent was added to the extracellular vesicle preparation liquid in Comparative example 1, the mixture was immediately analyzed with a column (untreated), the mixture was analyzed after treated at 80° C. for 5 minutes, or the mixture was analyzed after treated at 80° C. for 15 minutes.

[3] = tested on: milk-derived extracellular vesicles; test: Staining of milk-derived extracellular vesicles, analysis by high-performance liquid chromatography gel filtration system (Example 10 / Comparative example 1); details: staining agent 1 μM, room temperature 12 hours
Procedure: Commercially available pasteurized milk (by Seki milk or Takanashi) of 1 L was centrifuged at 8000 rpm for 30 minutes, and the supernatant was filtrated by a coffee filter. Subsequently, acetic acid was added thereto to be 1%, and the mixture was further centrifuged at 8000 rpm for 30 minutes. The supernatant thereof was further filtrated by a coffee filter. The liquid obtained after the filtration was filtrated by a filter of 0.45 μm (by Sartorius), and the filtrate was filtrated by a filter of 0.1 μm (by Sartorius). Since extracellular vesicles remain on the filter of 0.1 μm, the extracellular vesicles were washed with 5 mL of phosphate buffer solution three times. Eventually, extracellular vesicles were collected with 1 mL of phosphate buffer solution. Further, 10 μL of the purified extracellular vesicle liquid was diluted with 40 μL of phosphate buffer solution (hereafter, referred to as “extracellular vesicle preparation liquid”)
Compounds 1 to 9 synthesized in Examples 1 to 9 were diluted with DMSO to produce a staining agent used in Example 10.
ExoSparkler Exosome Membrane Labeling Kit-Red (ExoSP Model No. EX02, by Dojin) was diluted with a DMSO solution in accordance with the instructions for use to produce a staining agent of Comparative example 1.
The staining agent produced in Example 10 was added to an extracellular vesicle preparation liquid so that the final concentration of the staining agent became 1 μM. Further, 1 μL of the staining agent produced in Comparative example 1 was added to an extracellular vesicle preparation liquid. In Example 10 and Comparative example 1, the staining agent was added to the extracellular vesicle preparation liquid and then allowed to stand at room temperature for 12 hours. After 12 hours elapsed, 10 μL of the reaction product was analyzed by a high-performance liquid chromatography gel filtration system. […] Detection was performed on ExoSP at 560 nm for excitation and 600 nm for fluorescence detection and was performed on the compounds synthesized in Examples 1 to 8 at 480 nm for excitation and 530 nm for fluorescence detection. […]

[4] = tested on: HEK293 cells; test: Tracking of labeled milk-derived extracellular vesicles introduced into cells (Example 15); format: cell-based
Procedure: (§1) The milk-derived extracellular vesicles (exosomes) prepared in the procedure of Example 10 were stained with GIF-2276 at room temperature for 12 hours to label the extracellular vesicles. Unreacted GIF-2276 was removed by Microcon 300K (by Millipore). Lysosomes in HEK293 cells (ThermoFisher) were labeled with LysoBrite Red, and GIF-2276-labeled milk-derived extracellular vesicles were added thereto. After 3 hours, the mixture was observed by a microscope. FIG. 6 illustrates the result. The upper left “2276” in FIG. 6 is a fluorescent photograph of the extracellular vesicles labeled with GIF-2276. The upper right “LysoBright” in FIG. 6 is a fluorescent photograph of the lysosomes labeled with LysoBrite Red. The lower left in FIG. 6 is a photograph obtained by merging the fluorescent photograph of the extracellular vesicles labeled with GIF-2276 and the fluorescent photograph of the lysosomes labeled with LysoBrite Red. The lower right in FIG. 6 is a photograph of HEK293 cells captured in visible light.

[5] = tested on: HEK293 cells; test: Tracking of labeled lactic acid bacteria (Yakult)-derived extracellular vesicles introduced into cells (Example 16); format: cell-based
Procedure: as §1
Experiments were performed in the same procedure as in Example 15 except that, instead of milk-derived extracellular vesicles, lactic acid bacteria (Yakult)-derived extracellular vesicles were used. FIG. 7 illustrates the result.

[6] = tested on: extracellular vesicles of pasteurized milk; test: Correlation between gel filtration and plate reader detection of extracellular vesicles (Example 17 (2))
Procedure: Patent Literature 1 discloses that the use of GIF-2250 enables quantification of extracellular vesicles by a plate reader. The correlation between detection of extracellular vesicles by a plate reader with the use of GIF-2250 and detection of extracellular vesicles by gel filtration with the use of GIF-2276 synthesized in Example 1 was examined.
Pasteurized milk (Takanashi) was heated at 60, 70, and 80° C. for 30 minutes and cooled back to room temperature. The extracellular vesicles were then prepared by the procedure described in Example 10, and the pasteurized milk was added thereto so that the final concentration of GIF-2276 synthesized in Example 1 became 1 μM to label the extracellular vesicles. The mixture was analyzed by a high-performance liquid chromatography gel filtration system to find the area of the peak. Extracellular vesicles prepared in the same manner reacted with 3 μM of GIF-2250 to find the fluorescence quantity by using a fluorescent plate reader. Respective values were plotted to find a correlation.

[7] = tested on: lactic acid bacteria (Yakult)-derived extracellular vesicles; test: Staining of lactic acid bacteria (Yakult)-derived extracellular vesicles, gel filtration analysis (Example 14 / Comparative example 3); details: staining agent 1 μM, room temperature 12 hours
Procedure: The staining agent produced in Example 10 was added to an extracellular vesicle preparation liquid so that the final concentration of the staining agent became 1 μM. Further, 1 μL of the staining agent produced in Comparative example 1 was added to an extracellular vesicle preparation liquid. In Example 10 and Comparative example 1, the staining agent was added to the extracellular vesicle preparation liquid and then allowed to stand at room temperature for 12 hours. After 12 hours elapsed, 10 μL of the reaction product was analyzed by a high-performance liquid chromatography gel filtration system. As the eluent for the column, 10 mM of Tris (pH 6.8), 0.25 mM of EDTA, and 50 mM of NaCl were used. Detection was performed on ExoSP at 560 nm for excitation and 600 nm for fluorescence detection and was performed on the compounds synthesized in Examples 1 to 8 at 480 nm for excitation and 530 nm for fluorescence detection. A column having 3 cm of Gen 2 qEV original/70 nm (by iZQN) and Shodex OHpak SB-807 (by Showa denko) connected to each other was used.
Next, experiments using various lactic fermenting beverages were performed. As the lactic fermenting beverage, A: Yakult (by Yakult), B: Onakayorokobu lactic acid bacteria (by Kurashimoa), and C: Pirkle (by Nissin Foods) were used. Each 500 mL of the lactic fermenting beverages of A to C listed above was centrifuged at 8000 rpm for 30 minutes, and the supernatant was filtrated by a coffee filter. The liquid obtained after the filtration was filtrated by a filter of 0.45 μm (by Sartorius), and the filtrate was filtrated by a filter of 0.033 μm (by GVS). Since extracellular vesicles remain on the filter of 0.033 μm, the extracellular vesicles were washed with 5 mL of phosphate buffer solution three times. Eventually, extracellular vesicles were collected with 1 mL of phosphate buffer solution. […]

| SMILES | effect of heat treatment on fluorescence intensity [2] | sensitivity order in staining of pasteurized milk extracellular vesicles [3] | sensitivity order in staining of lactic acid bacteria extracellular vesicles [7] | further results |
| --- | --- | --- | --- | --- |
| CN(C)c1ccc(CCCN(C)C2CCc3cc(OCCNc4ccc([N+](=O)[O-])c5nonc45)ccc32)cc1 (stereo not shown) [GIF-2250, reference compound] | – | – | – | peak of milk-derived extracellular vesicles in gel filtration [1]: no peak of milk-derived extracellular vesicles was found |
| CN(C)c1ccc(CN(C)C2CCc3cc(OCCn4cc(CCOc5ccc([N+](=O)[O-])c6nonc56)nn4)ccc32)cc1 (stereo not shown) [GIF-2274] | significant increase in the fluorescence intensity due to heat treatment | – | – | – |
| CN(C)c1ccc(CCCN(C)C2CCc3cc(OCCOc4ccc([N+](=O)[O-])c5nonc45)ccc32)cc1 (stereo not shown) [GIF-2276] | significant increase in the fluorescence intensity due to heat treatment | highest in the order of GIF-2281, GIF-2280, and GIF-2276 | – | tracking of labeled extracellular vesicles in cells ([4]; HEK293 cells, after 3 hours): can be tracked in the cells to which the same was introduced; localization of signals of labeled extracellular vesicles in cells ([4]; lysosomes labeled with LysoBrite Red, microscope after 3 hours): most of signals from extracellular vesicles are localized in the lysosomes; tracking of labeled extracellular vesicles in cells [5]: can be tracked in the cells to which the same was introduced; peak of milk-derived extracellular vesicles in gel filtration [1]: a clear peak due to the size of milk-derived extracellular vesicles was found; quantification of extracellular vesicles by plate reader ([6]; depiction omitted): successfully quantified; correlation of gel filtration peak area (GIF-2276) with plate reader fluorescence intensity (GIF-2250) ([6]; milk heated at 60, 70, 80° C. for 30 minutes, GIF-2276 1 μM, GIF-2250 3 μM): high correlation |
| CN(C)c1ccc(CCCN(C)C2CCc3cc(OCCOCCOc4ccc([N+](=O)[O-])c5nonc45)ccc32)cc1 (stereo not shown) [GIF-2277] | significant increase in the fluorescence intensity due to heat treatment | – | highest in the order of GIF-2277, GIF-2281, and GIF-2282 | – |
| CN(C)c1ccc(CCCN(C)C2CCc3cc(OCCCCCCOc4ccc([N+](=O)[O-])c5nonc45)ccc32)cc1 (stereo not shown) [GIF-2280] | – | highest in the order of GIF-2281, GIF-2280, and GIF-2276 | – | – |
| CN(CCCc1ccc(N(C)C)cc1)Cc1ccc(OCCOc2ccc([N+](=O)[O-])c3nonc23)cc1 [GIF-2281] | – | highest in the order of GIF-2281, GIF-2280, and GIF-2276 | highest in the order of GIF-2277, GIF-2281, and GIF-2282 | – |
| CN(C)c1ccc(CCCN(C)C2CCc3cc(OCCOCCOCCOCCOc4ccc([N+](=O)[O-])c5nonc45)ccc32)cc1 (stereo not shown) [GIF-2282] | – | – | highest in the order of GIF-2277, GIF-2281, and GIF-2282 | – |
